{
  "source": "paper PMC10288505",
  "about": "“Photoswitchable Calixarene Activators for Controlled Peptide Transport across Lipid Membranes” (Journal of the American Chemical Society, 2023)",
  "test": "Carboxyfluorescein (CF) dye efflux assay, counterion-activated peptide transport",
  "format": "biochemical",
  "settings": "for TE (transport efficiency), R6 transport / TE (transport efficiency), R8 transport: TE = Ymax × pEC50/f, pEC50 = −log EC50 (in mM), f = 20.6; for TE (transport efficiency), R6 transport: R6 4 μM; for TE (transport efficiency), R6 transport / TE (transport efficiency), R8 transport / Ymax (maximal CF release relative to Triton X-100 lysis), R6 transport / EC50 / Ymax (maximal CF release relative to Triton X-100 lysis), R8 transport: EYPC-LUV⊃CF 15 μM; for TE (transport efficiency), R8 transport: R8 4 μM; for Ymax (maximal CF release relative to Triton X-100 lysis), R6 transport / EC50 / Ymax (maximal CF release relative to Triton X-100 lysis), R8 transport: 5 mM phosphate buffer pH 7.3, Hill fit, triplicate; for EC50 / Activation of CF release in the presence of peptide R4: 50 mM CF inside; for EC50: fluorescence; for Activation of CF release in the presence of peptide R4: R4 5 µM, EYPC-LUV⊃CF 15 µM",
  "method": "Dynamic light scattering (DLS) control experiments also confirmed liposome integrity under the experimental conditions employed in the different membrane transport assays, which ruled out potential membrane disruption interferences (Figure S34). Established dye efflux assays were performed using the carboxyfluorescein (CF) dye encapsulated at self-quenching concentrations in egg phosphatidylcholine large unilamellar vesicles (EYPC-LUV⊃CF).[26],[27],[29],[45] In these experiments, the fractional release of trapped CF (or fractional transport activity, Y), triggered by the addition of counterion activators and peptides, is monitored by time-resolved fluorescence spectroscopy and calibrated by the addition of Triton X-100 (Figure S35).\nThe studies were performed with both 1 and 2 in the E and Z configurations in the presence of fixed concentrations of liposomes and cationic peptides. […] Likewise, the addition of peptides alone or nonbinding anionic peptides in the presence of calixarene activators also results in unmodified fluorescence signal, confirming that the formation of the calixarene–peptide complex is critical to activate the transport process. […] This approach retrieves the Ymax (i.e., maximal CF release relative to liposome lysis after the addition of Triton X-100) and EC50 (i.e., the effective counterion activator concentration required to reach Ymax/2) as the relevant parameters to measure the efficiency of the counterion activators.\n10 mg of L-α-phosphatidylcholine (95%) (Egg, Chicken) were dissolved in 1 ml of chloroform. The solution was evaporated under a nitrogen stream, under rotation, to form a thin lipid film in the bottom of the flask. This film was left to dry under vacuum for a minimum of 1h. After drying the maximum of the solvent from the solution, 1 ml of the solution to incorporate (CF 50 mM in 5 mM phosphate buffer for EYPC-LUV⊃CF and only phosphate buffer 5 mM pH 7.4, for the LUVs with no encapsulation) was added to the thin film and the lipids were left to resuspend under agitation, in a 40 °C bath, for 30 min. The resuspended lipid mixture was then submitted to 10 freeze-thaw cycles and extruded 23 times through a 100 nm membrane, to obtain uniform, monodisperse liposomes with high encapsulation of the added solution. The liposomes were then separated from the molecules that were not encapsulated by size-exclusion chromatography, with Sephadex G25 (V = 37 ml), obtaining two fractions, one with high turbidity and a clear one, corresponding to the encapsulated and free sensor, respectively. The samples were then analyzed by Dynamic Light Scattering (DLS) to determine the average size of the liposomes in solution and their size distribution.\nAll assays were done up to 48h after the preparation of the vesicles to ensure their integrity and majority of CF still encapsulated.\nEC50 and Ymax calculation. For the measurement of 1 and 2’s effectiveness as a counterion activators of polyarginine transport, dye efflux assays were executed at several counterion activator concentrations, while maintaining the concentration of peptide and LUV fixed as indicated in the respective figures.\nFor the dye efflux assays, CF emission was followed throughout the assay, with consecutive additions of the elements of the solution – the initial solution presented only the vesicles at a fixed concentration. A counterion activator aliquot is then added according to the concentration to be tested and the emission is measured to confirm that CF remains encapsulated; some counterion activators can act as detergents at sufficient concentrations. Finally, the peptide in question is added and fluorescence spectra are measured […]\nuntil the emission stabilizes and a maximum of release is reached. If the counterion activator has the capacity to activate the transport, CF should be co-transported to the exterior of the liposome with the influx of the counterion-peptide complex. Finally, Triton X-100 is added to the solution to dissolve the […]",
  "key": {"[1]": {"settings": "peptide R6 4 μM, read-out: EC50 (effective counterion activator concentration to reach Ymax/2), R6 transport"}, "[2]": {"settings": "peptide R8 4 μM, read-out: EC50 (effective counterion activator concentration to reach Ymax/2), R8 transport"}},
  "note": "“And” between values parts separate entries of the source, which are not always exact repeats. Equal values may be shown once. Read-outs that look alike come from different tables or passages of the source.",
  "data": [
    {"smiles": "O=S(=O)([O-])c1cc2c(O)c(c1)Cc1cc(S(=O)(=O)[O-])cc(c1O)Cc1cc(S(=O)(=O)[O-])cc(c1OCCCCCCOc1ccc(/N=N/c3ccccc3)cc1)Cc1cc(S(=O)(=O)[O-])cc(c1O)C2.[Li+].[Li+].[Li+].[Li+]", "note": "[E-1]", "values": [
      {"measurement": "TE (transport efficiency), R6 transport", "value": "19.4 ± 0.2"},
      {"measurement": "TE (transport efficiency), R8 transport", "value": "20.3 ± 0.4"},
      {"measurement": "Ymax (maximal CF release relative to Triton X-100 lysis), R6 transport", "setting": "peptide R6 4 μM", "value": "96% and 96 ± 1%"},
      {"measurement": "EC50", "setting": "[1]", "value": "72 ± 5", "unit": "nM"},
      {"measurement": "Ymax (maximal CF release relative to Triton X-100 lysis), R8 transport", "setting": "peptide R8 4 μM", "value": "91 ± 2", "unit": "%"},
      {"measurement": "EC50", "setting": "[2]", "value": "24 ± 2", "unit": "nM"}
    ]},
    {"smiles": "CCCCc1ccc(/N=N/c2ccc(OCCCOc3c4cc(S(=O)(=O)[O-])cc3Cc3cc(S(=O)(=O)[O-])cc(c3O)Cc3cc(S(=O)(=O)[O-])cc(c3O)Cc3cc(S(=O)(=O)[O-])cc(c3O)C4)cc2)cc1.[Li+].[Li+].[Li+].[Li+]", "note": "[E-2]", "values": [
      {"measurement": "TE (transport efficiency), R6 transport", "value": "20.2 ± 0.2"},
      {"measurement": "TE (transport efficiency), R8 transport", "value": "22.2 ± 0.3"},
      {"measurement": "Ymax (maximal CF release relative to Triton X-100 lysis), R6 transport", "setting": "peptide R6 4 μM", "value": "96% and 96 ± 1%"},
      {"measurement": "EC50", "setting": "[1]", "value": "45 ± 2", "unit": "nM"},
      {"measurement": "Ymax (maximal CF release relative to Triton X-100 lysis), R8 transport", "setting": "peptide R8 4 μM", "value": "93 ± 2", "unit": "%"},
      {"measurement": "EC50", "setting": "[2]", "value": "11 ± 1", "unit": "nM"}
    ]},
    {"smiles": "O=S(=O)([O-])c1cc2c(O)c(c1)Cc1cc(S(=O)(=O)[O-])cc(c1O)Cc1cc(S(=O)(=O)[O-])cc(c1OCCCCCCOc1ccc(/N=N\\c3ccccc3)cc1)Cc1cc(S(=O)(=O)[O-])cc(c1O)C2.[Li+].[Li+].[Li+].[Li+]", "note": "[Z-1]", "values": [
      {"measurement": "Activation of CF release in the presence of peptide R4", "value": "no activation was observed"},
      {"measurement": "TE (transport efficiency), R6 transport", "value": "10.8 ± 0.8"},
      {"measurement": "TE (transport efficiency), R8 transport", "value": "13.3 ± 0.4"},
      {"measurement": "Ymax (maximal CF release relative to Triton X-100 lysis), R6 transport", "setting": "peptide R6 4 μM", "value": "63% and 63 ± 5%"},
      {"measurement": "EC50", "setting": "[1]", "value": "291 ± 32", "unit": "nM"},
      {"measurement": "Ymax (maximal CF release relative to Triton X-100 lysis), R8 transport", "setting": "peptide R8 4 μM", "value": "69 ± 2", "unit": "%"},
      {"measurement": "EC50", "setting": "[2]", "value": "99 ± 3", "unit": "nM"}
    ]},
    {"smiles": "CCCCc1ccc(/N=N\\c2ccc(OCCCOc3c4cc(S(=O)(=O)[O-])cc3Cc3cc(S(=O)(=O)[O-])cc(c3O)Cc3cc(S(=O)(=O)[O-])cc(c3O)Cc3cc(S(=O)(=O)[O-])cc(c3O)C4)cc2)cc1.[Li+].[Li+].[Li+].[Li+]", "note": "[Z-2]", "values": [
      {"measurement": "Activation of CF release in the presence of peptide R4", "value": "no activation was observed"},
      {"measurement": "TE (transport efficiency), R6 transport", "value": "16.6 ± 0.3"},
      {"measurement": "TE (transport efficiency), R8 transport", "value": "20.8 ± 0.4"},
      {"measurement": "Ymax (maximal CF release relative to Triton X-100 lysis), R6 transport", "setting": "peptide R6 4 μM", "value": "94% and 94 ± 2%"},
      {"measurement": "EC50", "setting": "[1]", "value": "227 ± 17", "unit": "nM"},
      {"measurement": "Ymax (maximal CF release relative to Triton X-100 lysis), R8 transport", "setting": "peptide R8 4 μM", "value": "94 ± 2", "unit": "%"},
      {"measurement": "EC50", "setting": "[2]", "value": "30 ± 4", "unit": "nM"}
    ]}
  ]
}
